According to patent publication EP0982028A1, “New use of taxoid derivatives” (RHONE-POULENC RORER S.A., priority 1998, dated 2000):
In brackets after ≈: the same amount, converted by molar mass. Several values for one entry are separate records, joined by “and”; a condition that tells them apart may be missing. Identical values can stand only once. Entries after “also recorded” stand apart in the source; their conditions may differ. Like-named read-outs stand apart in the source and are kept apart here.

Columns and labels:
[1] = test system: colon adenocarcinoma C51; assay: In vivo antitumor activity against colon adenocarcinoma C51; parameters: species or system BALB/c female mice; settings: for T-C: tumor to reach 750 mg
Method: (§1) In vivo schedule of administration and antitumor efficacy studies were carried out using a preclinical standard formulation of Product of formula Ia in ethanol: polysorbate 80 (50:50, v/v). After dilution, the final concentration was 5 % ethanol, 5 % polysorbate, 90 % glucose-5 % in water.
(§2) Product of formula Ia was administered by the intravenous route (i.v.). The experiments and data analyses were done according to standard protocols.
The activity end points used to assess subcutaneously implanted solid tumors were: • tumor growth inhibition, T/C, where T and C are the median tumor weights in mg of the treated and the control groups, respectively. […] A T/C < 10 %, ++, is considered as a high antitumor activity level which justifies further development (DN-2 level).
(§3) In cases of high antitumor activity, the two following end points were also used: • tumor growth delay, T-C, where T and C are the median times in days required for the treatment group and the control group tumors to reach a predetermined size (750 to 1500 mg). • log cell kill, which is the logarithm of the total number of cells killed by treatment.
(§4) Toxicity was based on drug deaths (≥ 10 %) or a weight loss nadir > 20 %. Docetaxel was used for comparison trials when needed.
Product of formula Ia was administered i.v. on day 4, 6, 8. […] The dosage below yielded a 2.2 log cell kill.

[2] = test system: KB V1; settings: IC50 resistant / IC50 sensitive cells, 4 days of continuous exposure
Method: (§5) The resistance factor was calculated by dividing the IC50 value obtained on resistant cells by the IC50 value obtained on sensitive cells.

[3] = test system: advanced colon adenocarcinoma C38; assay: In vivo antitumor activity against advanced stage colon adenocarcinoma C38; parameters: species or system B6D2F1 female mice; settings: for T-C: tumor to reach 1000 mg
Method: as §1, §2, §3
For advanced stage tumors, regressions can be either partial (more than 50 % reduction in tumor mass) or complete. Complete regressions are included in the partial regressions.
as §4
Product of formula Ia was administered i.v. to mice bearing 200 to 400 mg of tumor. […] In comparison, docetaxel at the HNTD produced only 40 % partial regressions in the same trial.

[4] = test system: P388/DOX; settings: IC50 on resistant cells divided by IC50 on sensitive cells, 4 days of continuous exposure
Method: as §5

[5] = test system: P388/CPT5 cell line; settings: P388/CPT5, acquired resistance to camptothecin, no P-glycoprotein
Method: as §5

[6] = test system: Calc18/TXT; settings: IC50 resistant / IC50 sensitive cells, 4 days of continuous exposure
Method: as §5

[7] = test system: HL60/TAX; settings: IC50 resistant / IC50 sensitive cells, 4 days of continuous exposure
Method: as §5

[8] = test system: P388/TXT; settings: IC50 resistant / IC50 sensitive cells, 4 days of continuous exposure
Method: as §5

[9] = test system: P388/VCR; settings: IC50 resistant / IC50 sensitive cells, 4 days of continuous exposure
Method: as §5

[10] = test system: human colon adenocarcinoma CaCo-2 cell line (ATCC HTB37); assay: In vitro growth inhibition on CaCo-2 cell line (neutral red); format: cell-based
Method: The methodology was used, i.e., 96 well plates, time of contact of the drugs (96 hours) and neutral red coloration of viable cell. Results expressed as IC50, were summarized in the next table.

[11] = 5.8 mg/kg per injection i.v., days 4,6,8
[12] = 9.3 mg/kg per injection i.v., days 4,6,8
[13] = 15.0 mg/kg per injection i.v., days 4,6,8
[14] = 24.2 mg/kg per injection i.v., days 4,6,8
[15] = 7.7 mg/kg per injection i.v., days 14,17,20
[16] = 12.4 mg/kg per injection i.v., days 14,17,20
[17] = 20.0 mg/kg per injection i.v., days 14,17,20
[18] = 32.2 mg/kg per injection i.v., days 14,17,20

| Compound | Comments [1, 11] | T/C in % day 18 [1, 11] [%] | log cell kill total [1, 11] | T-C [1, 11] [days] | Comments [1, 12] | T/C in % day 18 [1, 12] [%] | log cell kill total [1, 12] | T-C [1, 12] [days] | Comments [1, 13] | Comments [1, 14] | Resistance factor [2] | Comments [3, 15] | Complete regressions [3, 15] | log cell kill total [3, 15] | T-C [3, 15] [days] | Comments [3, 16] | Complete regressions [3, 16] | Comments [3, 17] | Complete regressions [3, 17] | Resistance factor [5] | other results |
| --- | --- | --- | --- | --- | --- | --- | --- | --- | --- | --- | --- | --- | --- | --- | --- | --- | --- | --- | --- | --- | --- |
| 4α-acetoxy-2α-benzoyloxy-5β,20-epoxy-1β-hydroxy-7β,10β-dimethoxy-9-oxo-11-taxen-13α-yl (2R,3S)-3 tert-butoxycarbonylamino-2-hydroxy-3-phenylpropionate [Product of formula Ia] | Active | 0 | 2.2 | 21.9 | highly active; also recorded: HNTD active | 0 | 2.6 | 25.8 | Toxic | Toxic | 7.6 | Active | 2/5 | 2.7 | 25.0 | Highly active | the same number of complete regressions and 5/5 | HNTD highly active | 5/5 | 4.8 | DD = drug death [1, 13]: 1/5; DD = drug death [1, 14]: 5/5; HNTD = highest nontoxic dose ([1]; i.v. on day 4, 6, 8, C51-bearing mice): 9.3 mg/kg/injection; TFS = tumor free survivors observed on day 139 [3, 16]: 4/5; tumor free survivors ([3]; 12.4 mg/kg/injection i.v.): 80%; TFS = tumor free survivors observed on day 139 [3, 17]: all mice being tumor free survivors and 5/5; Comments [3, 18]: Toxic; DD = drug death [3, 18]: 1/5; HNTD = highest nontoxic dose ([3]; i.v., mice bearing 200 to 400 mg of tumor): 20 mg/kg/injection; Resistance factor [4]: 10.0; Resistance factor ([4]; listed as product of formula Ia): 10; Resistance factor [6]: 4.3; Resistance factor [7]: 2.5; Resistance factor [8]: 1.8; Resistance factor [9]: 1.8 |
| CC(=O)O[C@@]12CO[C@@H]1C[C@H](O)[C@@]1(C)C(=O)[C@H](O)C3=C(C)[C@@H](OC(=O)[C@H](O)[C@@H](NC(=O)OC(C)(C)C)c4ccccc4)C[C@@](O)([C@@H](OC(=O)c4ccccc4)[C@H]21)C3(C)C [Docetaxel] | Active | 4 | 0.9 | 8.9 | Active | 0 | 2.2 | 22.4 | HNTD highly active | Toxic | 59.0 | Inactive | 0/5 | 0.3 | 2.5 | Marginal activity | 0/5 | HNTD highly active | 0/5 | 10.5 | T/C in % day 18 [1, 13]: 0%; log cell kill total [1, 13]: 3.1; T-C [1, 13]: 31.1 days; bwl = body weight loss [1, 14]: 22.8%; IC50 ([10]; Homo sapiens, 96 well plates, 96 hours contact, neutral red): 0.108 ± 0.017 µg/mL (≈ 0.134 µM); IC50 on CaCo-2 cells relative to Product of formula Ia ([10]; IC50 docetaxel versus IC50 Product of formula Ia): 4.9 times; Resistance factor ([2]; listed as docetaxel): 59; log cell kill total [3, 16]: 0.7; T-C [3, 16]: 6.1 days; log cell kill total [3, 17]: 3.1; T-C [3, 17]: 29.1 days; Comments [3, 18]: Toxic; bwl = body weight loss [3, 18]: 20.6%; partial regressions ([3]; at the HNTD, partial = more than 50 % reduction in tumor mass): 40%; Resistance factor [4]: 50.7; Resistance factor ([4]; listed as docetaxel): 50; Resistance factor [6]: 23.5; Resistance factor [7]: 8.1; Resistance factor [8]: 4.8; Resistance factor [9]: 5.8 |
| CC[C@@]1(O)C(=O)OCc2c1cc1n(c2=O)Cc2cc3ccccc3nc2-1 [camptothecin] |  |  |  |  |  |  |  |  |  |  |  |  |  |  |  |  |  |  |  | 286 |  |
